Test results as given in patent US11470844B2, “Vespidae wasp repellent” (KINP CO., LTD, priority 2015, dated 2022).

Key:
Vespa mandarinia worker = experiment: Spray on Vespa mandarinia worker collecting sawthorn oak sap; type: in vivo, Vespa mandarinia japonica Radoszkowski; details: 10 workers; for behavior of workers after spraying: immediately started flapping, same time or a few seconds later; for Number of worker Effective / Number of worker No response: sprayed one time, observed up to 1 minute
Experimental: The experiment was conducted on a Vespa mandarinia japonica Radoszkowski worker which flew to a sawthorn oak tree bleeding sap and which collected the sap in Kagawa Prefecture Kinbuchi Forest Park in Takamatsu City Kagawa Prefecture from June to October, 2014 and from June to July, 2015.
Specifically, 100 mL of distilled water was enclosed in a plastic sprayer having a volume of 200 mL to be used as a control sprayer, and 100 mL of benzyl alcohol was enclosed in the same material and the same volume sprayer to be used as a test liquid sprayer. First, distilled water was sprayed one time to one Vespa mandarinia worker which was collecting sap at a sap bleeding part of a trunk of a sawthorn oak tree by using a control sprayer. […] Then, benzyl alcohol was sprayed one time by using a test liquid sprayer. Next, the workers were observed up to 1 minute. With respect to 2-phenylethanol, 3-phenylpropanol, 1-phenyl-2-prpanol and benzyl acetate, the spray test to a Vespa mandarinia worker collecting a sawthorn oak sap was conducted in the same condition.

Apis mellifera worker = details: in vivo
Experimental: The experiment involving a Apis mellifera worker which was sucking nectar from a flower of Abelia planted at a bank of Noda pond located at Fuseishi-cho, Takamatsu City, Kagawa Prefecture was conducted on Jul. 22 to 24, 2015.
With respect to the experimental condition, first, distilled water was sprayed once on the worker which was sucking nectar or moving from a flower to a flower by using a sprayer, and then the inventors observed the behavior for 30 seconds. Next, benzyl alcohol, 2-phenylethanol or benzyl acetate was sprayed once on the same worker by using the sprayer having the same mass and the same volume, and then the inventors observed the behavior up to 30 seconds. The test liquid was judged to be “effective” in the case where the Apis mellifera worker on which the test liquid was sprayed did different action than normal activity to visit a flower during the observation time.

| SMILES | behavior of workers after spraying (Vespa mandarinia worker) | Number of worker Effective (Vespa mandarinia worker) | Number of worker No response (Vespa mandarinia worker) | Number of worker Effective (Apis mellifera worker) | Number of worker No response (Apis mellifera worker) |
| --- | --- | --- | --- | --- | --- |
| CC(O)Cc1ccccc1 (centres unmarked) [1-Phenyl-2-propanol, 1-phenyl-2-propanol] | flew away from the sap bleeding part | 10/10 | 0/10 |  |  |
| OCCCc1ccccc1 [3-Phenylpropanol, 3-phenylpropanol] | flew away from the sap bleeding part | 10/10 | 0/10 |  |  |
| CC(=O)OCc1ccccc1 [Benzyl acetate, benzyl acetate] | flew away from the sap bleeding part | 10/10 | 0/10 | 0/10 | 10/10 |
